The source of these data is DBAASP.

Converted amounts (≈) assume the structure as drawn.

One may read the MIC as the least concentration at which growth counts as inhibited. The low end stands for greater potency, the high end for weaker potency.

Some test systems named below: Bacillus subtilis 168; Escherichia coli B; Pseudomonas aeruginosa; Staphylococcus aureus; Botrytis cinerea.
Experiment in all cases: ≥ marks a high value that may be exact or a test limit, other limits are often not marked, values filed in µg/mL are converted to µM
Experiment [1] has as its system Candida albicans F7-39/IDE99.
Experiment [2] concerns Micrococcus luteus CCM 144.
Experiment [3] deals with Pseudomonas aeruginosa ATCC 27853.
The test system of experiment [4] is Staphylococcus aureus ATCC 43300.
In experiment [5] the test system is Staphylococcus epidermidis.
The test system of experiment [6] is Candida albicans ATCC 10231.
The subject of experiment [7] is Escherichia coli ATCC 11775.
Experiment [8] has as its system Staphylococcus aureus ATCC 12600.

For the molecule `CC[C@H](C)[C@H](NC(=O)[C@H](CC(C)C)NC(=O)[C@H](CCCCN)NC(=O)[C@@H](NC(=O)[C@@H](NC(=O)[C@H](Cc1cnc[nH]1)NC(=O)[C@@H]1CCCN1C(=O)[C@H](CC(C)C)NC(=O)[C@@H](NC(=O)[C@H](CCCCN)NC(=O)[C@H](C)NC(=O)[C@H](Cc1c[nH]c2ccccc12)NC(=O)[C@H](CC(C)C)NC(=O)[C@H](CO)NC(=O)[C@H](C)NC(=O)[C@H](CCSC)NC(=O)CN)C(C)C)C(C)C)C(C)C)C(=O)N[C@@H](CCCCN)C(=O)O` [GMASLWAKVLPHVVKLIK], the MIC against Bacillus subtilis 168 came to 4.7 µM (≈ 9.36 µg/mL); in [1], 8.7 µM (≈ 17.3 µg/mL); with Escherichia coli B, 2.3 µM (≈ 4.58 µg/mL); in [2], 1.7 µM (≈ 3.38 µg/mL); in the experiment with Pseudomonas aeruginosa, 53.3 µM (≈ 106 µg/mL); against Staphylococcus aureus, 6 µM (≈ 11.9 µg/mL).
Regarding `CC[C@H](C)[C@H](NC(=O)[C@H](C)NC(=O)CNC(=O)[C@H](Cc1c[nH]c2ccccc12)NC(=O)[C@H](CC(N)=O)NC(=O)[C@@H](N)CC(C)C)C(=O)N[C@@H](CC(C)C)C(=O)N[C@@H](CCCCN)C(=O)N[C@@H](CCCCN)C(=O)N[C@H](C(=O)N[C@H](C(=O)N[C@@H](CCCCN)C(N)=O)[C@@H](C)CC)[C@@H](C)CC` [LNWGAILKKIIK], the MIC against Bacillus subtilis 168 came out at 2 µM (≈ 2.79 µg/mL); in experiment [1] it was 6 µM (≈ 8.37 µg/mL); against Escherichia coli B it was 4.3 µM (≈ 6 µg/mL); in experiment [2], 2.7 µM (≈ 3.77 µg/mL); in the experiment with Pseudomonas aeruginosa, 43.3 µM (≈ 60.4 µg/mL); in the experiment with Staphylococcus aureus, 7.3 µM (≈ 10.2 µg/mL).
Turning to `CC[C@H](C)[C@H](NC(=O)CN)C(=O)N[C@@H](CCSC)C(=O)N[C@@H](CO)C(=O)N[C@@H](CO)C(=O)N[C@@H](CC(C)C)C(=O)N[C@@H](CCSC)C(=O)N[C@@H](CCCCN)C(=O)N[C@@H](CCCCN)C(=O)N[C@@H](CC(C)C)C(=O)N[C@@H](CCCCN)C(=O)N[C@@H](CCCCN)C(=O)N[C@@H](Cc1cnc[nH]1)C(=O)N[C@H](C(=O)N[C@@H](C)C(=O)N[C@@H](CCCCN)C(N)=O)[C@@H](C)CC` [GIMSSLMKKLKKHIAK], the MIC was 7 µM (≈ 12.7 µg/mL) with Bacillus subtilis 168; 12 µM (≈ 21.7 µg/mL) in experiment [1]; 26 µM (≈ 47.1 µg/mL) against Escherichia coli B; 3 µM (≈ 5.44 µg/mL) in experiment [2]; 6.4 µM (≈ 11.6 µg/mL) in experiment [3]; 17 µM (≈ 30.8 µg/mL) against Pseudomonas aeruginosa. Also, the minimum inhibitory concentration (MIC) in experiment [4] is more than 100 µM; in the experiment with Staphylococcus aureus it was more than 100 µM; in experiment [5], 10 µM (≈ 18.1 µg/mL).
`CC[C@H](C)[C@H](NC(=O)[C@H](Cc1ccccc1)NC(=O)[C@H](CO)NC(=O)[C@H](CC(C)C)NC(=O)[C@@H](NC(=O)[C@H](CCCN=C(N)N)NC(=O)CN)[C@@H](C)CC)C(=O)N[C@@H](CCCCN)C(=O)NCC(=O)N[C@@H](CC(C)C)C(=O)N[C@@H](C)C(=O)N[C@@H](CCC(=O)O)C(=O)N[C@@H](Cc1cnc[nH]1)C(=O)N[C@@H](CC(C)C)C(N)=O` [GRILSFIKGLAEHL]: the MIC is 9.65 µM (≈ 15 µg/mL) in the experiment with Botrytis cinerea, 6.44 µM (≈ 9.99 µg/mL) in experiment [6], not below 64.4 µM in experiment [7] and not below 64.4 µM in experiment [8].
